Laboratory results published in patent US8334236B2, “Ring-fused 2-pyridone derivatives and herbicides” (Kumiai Chemical Industry Co., Ltd., priority 2009, dated 2012).

What was measured:
[1] = tested on: Abutilon theophrasti medicus; assay: Test Example 2: herbicidal effects in farmland soil treatment; assay type: in vivo; set-up: scale not given here; details: 1000 g active ingredient per hectare, 21st day after treatment
Method: (§1) 80-cm^2 plastic pots were filled with farmland soil. Seeds of Abutilon theophrasti medicus and Amaranthus retroflexus were sowed in the pots, and soil was covered. A wettable powder formulation prepared according to Formulation Example 1 was diluted with water, and the dilution was uniformly sprayed on the soil surface with a small sprayer, in an amount equivalent to 1000 liters per hectare, such that 1000 g of the active ingredient was applied per hectare. Thereafter, the plants were grown in a greenhouse, and on the 21st day after the treatment, the herbicidal effects were investigated according to the criteria described in Table 71 shown above.

Amaranthus retroflexus [2] = assay: as above; assay type: in vivo; set-up: scale not given here; details: 1000 g active ingredient per hectare, 21st day after treatment
Method: as §1

[3] = tested on: Echinochloa oryzicola Vasing; assay: Test Example 1: herbicidal effects in paddy field soil treatment; assay type: in vivo; set-up: scale not given here; details: 1000 g active ingredient per hectare, 21st day after treatment
Method: (§2) 100-cm^2 plastic pots were filled with paddy field soil. After puddling and leveling, seeds of Echinochloa oryzicola Vasing, Monochoria vaginalis (Burm. f.) Presl var. plantaginea (Roxb.) Solms-Laub., and Scirpus juncoides Roxb. var. ohwianus. T. Koyama were sowed in the pots, and the soil was waterlogged to a water depth of 3 cm. On the next day, a wettable powder formulation prepared according to Formulation Example 1 was diluted with water, and the dilution was added dropwise onto the water surface. The amount of application was an amount equivalent to 1000 g of the active ingredient per hectare. Thereafter, the plants were grown in a greenhouse, and on the 21st day after the treatment, the herbicidal effects were investigated according to the criteria described in Table 71.
(§3) In addition, comparative compound A, comparative compound B, comparative compound C, and comparative compound D in the tables represent Compound Nos. 70, 34, 32, and 31, respectively, as described in EP-283261. The structural formulas of these compounds are presented below.

[4] = tested on: Monochoria vaginalis (Burm. f.) Presl var. plantaginea (Roxb.) Solms-Laub.; assay: as above; assay type: in vivo; set-up: scale not given here; details: 1000 g active ingredient per hectare, 21st day after treatment
Method: as §2, §3

[5] = tested on: Scirpus juncoides Roxb. var. ohwianus. T. Koyama; assay: as above; assay type: in vivo; set-up: scale not given here; details: 1000 g active ingredient per hectare, 21st day after treatment
Method: as §2, §3

Setaria viridis [6] = assay: Test Example 2: herbicidal effects in farmland soil treatment; assay type: in vivo; set-up: scale not given here; details: 1000 g active ingredient per hectare, 21st day after treatment
[7] = tested on: Abutilon theophrasti medicus; assay: Test Example 3: herbicidal effects in farmland foliar treatment; assay type: in vivo; set-up: scale not given here; details: 1000 g active ingredient per hectare, 14th day after treatment
Method: (§4) 80-cm^2 plastic pots were filled with farmland soil. Seeds of Echinochloa crus-galli (L.) P. Beauv. var. crus-galli, Abutilon theophrasti medicus, and Amaranthus retroflexus were sowed in the pots, and the plants were grown for two weeks in a greenhouse. A wettable powder formulation prepared according to Formulation Example 1 was diluted with water, and the dilution was applied by foliar treatment by spraying with a small sprayer over the whole plant from the upper part, in an amount equivalent to 1000 liters per hectare, such that 1000 g of the active ingredient was applied per hectare. Thereafter, the plants were grown in a greenhouse, and on the 14th day after the treatment, the herbicidal effects were investigated according to the criteria described in Table 71 shown above.

Amaranthus retroflexus [8] = assay: as above; assay type: in vivo; set-up: scale not given here; details: 1000 g active ingredient per hectare, 14th day after treatment
Method: as §4

[9] = tested on: Echinochloa crus-galli (L.) P. Beauv. var. crus-galli; assay: as above; assay type: in vivo; set-up: scale not given here; details: 1000 g active ingredient per hectare, 14th day after treatment
Method: as §4

Setaria viridis [10] = assay: as above; assay type: in vivo; set-up: scale not given here; details: 1000 g active ingredient per hectare, 14th day after treatment
Echinochloa crus-galli = assay: Test Example 2: herbicidal effects in farmland soil treatment; assay type: in vivo; set-up: scale not given here; details: 1000 g active ingredient per hectare, 21st day after treatment

melting point [°C] | SMILES | Herbicidal effect index, Abutilon thophrasti [1] | Herbicidal effect index, Amaranthus retroflexus (Amaranthus retroflexus [2]) | Herbicidal effect index, Echinochloa oryzicola [3] | Herbicidal effect index, Monochoria vaginalis [4] | Herbicidal effect index, Scirpus juncoides [5] | Herbicidal effect index, Setaria viridis (Setaria viridis [6]) | Herbicidal effect index, Abutilon theoprasti [7] | Herbicidal effect index, Amaranthus retroflexus (Amaranthus retroflexus [8]) | Herbicidal effect index, Echinochloa crus-galli [9] | Herbicidal effect index, Setaria viridis (Setaria viridis [10]) | Herbicidal effect index, Echinochloa crus-galli (Echinochloa crus-galli)
194 to 196 | Cn1c(=O)c(C(=O)C2=C(O)CCCC2=O)cc2ccc(C(F)(F)F)nc21 [II-136, 3-(2-hydroxy-6-oxo-1-cyclohexenecarbonyl)-1-methyl-7-(trifluoromethyl)-1,8-naphthyridin-2(1H)-one] | 4 | 5 | 5 | 5 | 5 | 4 | 5 | 5 | 5 | 4 | 5
226 to 228 | O=C1CCCC(O)=C1C(=O)c1cc2cccnc2n(-c2ccc3c(c2)OCCO3)c1=O [II-118, 1-(2,3-dihydrobenzo[b][1,4]dioxin-6-yl)-3-(2-hydroxy-6-oxo-1-cyclohexenecarbonyl)-1,8-naphthyridin-2(1H)-one] | 5 | 5 | 5 | 5 | 5 | 5 | 5 | 5 | 5 | 5 | 5
220 to 222 | COc1ccc(-n2c(=O)c(C(=O)C3=C(O)CCCC3=O)cc3cccnc32)cn1 [II-92, 3-(2-hydroxy-6-oxo-1-cyclohexenecarbonyl)-1-(6-methoxy-3-pyridinyl)-1,8-naphthyridin-2(1H)-one] | 5 | 5 | 5 | 5 | 5 | 4 | 5 | 5 | 5 | 5 | 5

The remaining lines, values behind:

SMILES | melting point [°C] | Herbicidal effect index, Abutilon thophrasti [1] | Herbicidal effect index, Amaranthus retroflexus (Amaranthus retroflexus [2]) | Herbicidal effect index, Echinochloa oryzicola [3] | Herbicidal effect index, Monochoria vaginalis [4] | Herbicidal effect index, Scirpus juncoides [5] | Herbicidal effect index, Setaria viridis (Setaria viridis [6]) | Herbicidal effect index, Abutilon theoprasti [7] | Herbicidal effect index, Amaranthus retroflexus (Amaranthus retroflexus [8]) | Herbicidal effect index, Echinochloa crus-galli [9] | Herbicidal effect index, Setaria viridis (Setaria viridis [10]) | Herbicidal effect index, Echinochloa crus-galli (Echinochloa crus-galli)
O=C1CCCC(O)=C1C(=O)c1cc2cccnc2n(-c2ccccc2)c1=O [II-41, 3-(2-hydroxy-6-oxo-1-cyclohexenecarbonyl)-1-phenyl-1,8-naphthyridin-2(1H)-one] | 212 to 214 | 5 | 5 | 5 | 5 | 5 | 5 | 5 | 5 | 5 | 5 | 5
Cn1c(=O)c(C(=O)C2=C(O)CCCC2=O)cc2ccccc21 [I-2, 3-(2-hydroxy-6-oxo-1-cyclohexenecarbonyl)-1-methylquinolin-2(1H)-one] | 179 to 181 |  |  | 5 | 5 | 5 |  |  |  |  |  | 
O=C1CCCC(O)=C1C(=O)c1cc2cccnc2n(Cc2ccccc2)c1=O [II-24, 1-benzyl-3-(2-hydroxy-6-oxo-1-cyclohexenecarbonyl)-1,8-naphthyridin-2(1H)-one] | 190 to 192 | 5 | 5 | 5 | 5 | 5 | 3 |  |  |  |  | 5
Cn1c(=O)c(C(=O)C2=C(O)CCCC2=O)cc2cccnc21 [II-2, 3-(2-hydroxy-6-oxo-1-cyclohexenecarbonyl)-1-methyl-1,8-naphthyridin-2(1H)-one] | 151 to 153 | 5 | 5 | 5 | 5 | 5 | 5 | 5 | 5 | 5 | 4 | 5
CCSCn1c(=O)c(C(=O)C2=C(O)CCCC2=O)cc2cccnc21 [II-19, 1-(ethylthiomethyl)-3-(2-hydroxy-6-oxo-1-cyclohexenecarbonyl)-1,8-naphthyridin-2(1H)-one] | 108 to 110 | 5 | 5 | 5 | 5 | 5 | 4 | 5 | 5 | 5 | 5 | 4
Cc1cc(-n2c(=O)c(C(=O)C3=C(O)CCCC3=O)cc3cccnc32)no1 [II-63, 3-(2-hydroxy-6-oxo-1-cyclohexenecarbonyl)-1-(5-methyl-3-isoxazolyl)-1,8-naphthyridin-2(1H)-one] | 113 to 116 | 5 | 5 | 5 | 5 | 5 | 3 | 5 | 5 | 5 | 5 | 4
